± gives the expanded uncertainty stated by the source.
Test: xn = mol fraction of the nth substance listed
Conditions: Liquid, Vibrating tube method

CCCCCCCC [octane] + CCCO
mass density [kg/m3]
Conditions	343.15 K	353.15 K
100 kPa, x2 = 0.1631	665.21 ± 4.3	654.7 ± 4.2
100 kPa, x2 = 0.2111	667.28 ± 4.3	656.5 ± 4.2
100 kPa, x2 = 0.3158	672.81 ± 4.3	661.43 ± 4.2
100 kPa, x2 = 0.4411	681.54 ± 4.4	669.56 ± 4.3
100 kPa, x2 = 0.7301	709.96 ± 4.5	697.88 ± 4.5
100 kPa, x2 = 0.8823	734.38 ± 4.7	723.05 ± 4.6
1000 kPa, x2 = 0.3158	–	663.09 ± 4.2
1000 kPa, x2 = 0.8823	735.58 ± 4.7	–
1010 kPa, x2 = 0.1631	–	656.23 ± 4.2
1010 kPa, x2 = 0.2111	668.8 ± 4.3	658.1 ± 4.2
1010 kPa, x2 = 0.4411	682.72 ± 4.4	671.12 ± 4.3
1010 kPa, x2 = 0.7301	711.47 ± 4.6	–
1010 kPa, x2 = 0.8823	–	724.42 ± 4.6
1020 kPa, x2 = 0.1631	666.65 ± 4.3	–
1020 kPa, x2 = 0.3158	674.29 ± 4.3	–
1020 kPa, x2 = 0.7301	–	699.6 ± 4.5
2000 kPa, x2 = 0.1631	667.79 ± 4.3	–
2000 kPa, x2 = 0.4411	–	672.33 ± 4.3
2010 kPa, x2 = 0.2111	669.99 ± 4.3	659.4 ± 4.2
2010 kPa, x2 = 0.3158	–	664.39 ± 4.3
2010 kPa, x2 = 0.4411	683.85 ± 4.4	–
2010 kPa, x2 = 0.8823	736.66 ± 4.7	–
2020 kPa, x2 = 0.1631	–	657.52 ± 4.2
2020 kPa, x2 = 0.3158	675.48 ± 4.3	–
2020 kPa, x2 = 0.7301	712.6 ± 4.6	700.81 ± 4.5
2020 kPa, x2 = 0.8823	–	725.57 ± 4.7
3000 kPa, x2 = 0.1631	–	658.76 ± 4.2
3000 kPa, x2 = 0.2111	671.1 ± 4.3	–
3000 kPa, x2 = 0.3158	676.61 ± 4.3	–
3000 kPa, x2 = 0.4411	685.01 ± 4.4	–
3000 kPa, x2 = 0.7301	–	702.03 ± 4.5
3010 kPa, x2 = 0.3158	–	665.6 ± 4.3
3010 kPa, x2 = 0.4411	–	673.58 ± 4.3
3010 kPa, x2 = 0.7301	713.72 ± 4.6	–
3010 kPa, x2 = 0.8823	–	726.72 ± 4.7
3020 kPa, x2 = 0.1631	668.96 ± 4.3	–
3020 kPa, x2 = 0.2111	–	660.63 ± 4.2
3020 kPa, x2 = 0.8823	737.74 ± 4.7	–
4000 kPa, x2 = 0.3158	677.77 ± 4.3	–
4000 kPa, x2 = 0.8823	738.79 ± 4.7	727.86 ± 4.7
4010 kPa, x2 = 0.2111	–	661.88 ± 4.2
4010 kPa, x2 = 0.3158	–	666.84 ± 4.3
4010 kPa, x2 = 0.4411	686.15 ± 4.4	674.84 ± 4.3
4010 kPa, x2 = 0.7301	714.83 ± 4.6	703.25 ± 4.5
4020 kPa, x2 = 0.1631	670.09 ± 4.3	659.99 ± 4.2
4020 kPa, x2 = 0.2111	672.25 ± 4.3	–
5000 kPa, x2 = 0.2111	–	663.08 ± 4.2
5000 kPa, x2 = 0.4411	–	676.07 ± 4.3
5000 kPa, x2 = 0.7301	715.96 ± 4.6	–
5010 kPa, x2 = 0.1631	671.22 ± 4.3	661.2 ± 4.2
5010 kPa, x2 = 0.3158	–	668.06 ± 4.3
5010 kPa, x2 = 0.4411	687.28 ± 4.4	–
5010 kPa, x2 = 0.7301	–	704.44 ± 4.5
5010 kPa, x2 = 0.8823	739.88 ± 4.7	–
5020 kPa, x2 = 0.2111	673.37 ± 4.3	–
5020 kPa, x2 = 0.3158	678.9 ± 4.3	–
5020 kPa, x2 = 0.8823	–	729.03 ± 4.7
6000 kPa, x2 = 0.4411	–	677.27 ± 4.3
6000 kPa, x2 = 0.7301	–	705.64 ± 4.5
6010 kPa, x2 = 0.1631	672.33 ± 4.3	–
6010 kPa, x2 = 0.3158	–	669.31 ± 4.3
6010 kPa, x2 = 0.4411	688.39 ± 4.4	–
6010 kPa, x2 = 0.8823	740.91 ± 4.8	–
6020 kPa, x2 = 0.1631	–	662.41 ± 4.2
6020 kPa, x2 = 0.2111	674.49 ± 4.3	664.26 ± 4.3
6020 kPa, x2 = 0.3158	680.02 ± 4.4	–
6020 kPa, x2 = 0.7301	717.05 ± 4.6	–
6020 kPa, x2 = 0.8823	–	730.16 ± 4.7
7000 kPa, x2 = 0.7301	–	706.83 ± 4.5
7000 kPa, x2 = 0.8823	741.99 ± 4.8	731.28 ± 4.7
7010 kPa, x2 = 0.1631	673.46 ± 4.3	663.61 ± 4.2
7010 kPa, x2 = 0.2111	675.59 ± 4.3	665.47 ± 4.3
7010 kPa, x2 = 0.4411	689.51 ± 4.4	–
7010 kPa, x2 = 0.7301	718.15 ± 4.6	–
7020 kPa, x2 = 0.3158	681.12 ± 4.4	670.48 ± 4.3
7020 kPa, x2 = 0.4411	–	678.5 ± 4.3
8000 kPa, x2 = 0.2111	676.71 ± 4.3	–
8000 kPa, x2 = 0.3158	682.22 ± 4.4	–
8000 kPa, x2 = 0.8823	743 ± 4.8	–
8010 kPa, x2 = 0.1631	674.54 ± 4.3	664.82 ± 4.3
8010 kPa, x2 = 0.3158	–	671.68 ± 4.3
8010 kPa, x2 = 0.4411	690.61 ± 4.4	679.69 ± 4.4
8010 kPa, x2 = 0.7301	–	708 ± 4.5
8020 kPa, x2 = 0.2111	–	666.69 ± 4.3
8020 kPa, x2 = 0.7301	719.22 ± 4.6	–
8020 kPa, x2 = 0.8823	–	732.4 ± 4.7
9000 kPa, x2 = 0.1631	675.63 ± 4.3	666 ± 4.3
9000 kPa, x2 = 0.4411	691.72 ± 4.4	–
9000 kPa, x2 = 0.7301	720.31 ± 4.6	–
9010 kPa, x2 = 0.2111	677.8 ± 4.3	667.86 ± 4.3
9010 kPa, x2 = 0.3158	683.34 ± 4.4	672.89 ± 4.3
9010 kPa, x2 = 0.4411	–	680.87 ± 4.4
9010 kPa, x2 = 0.7301	–	709.2 ± 4.5
9010 kPa, x2 = 0.8823	744.04 ± 4.8	–
9020 kPa, x2 = 0.8823	–	733.54 ± 4.7
10000 kPa, x2 = 0.8823	–	734.63 ± 4.7
10010 kPa, x2 = 0.1631	–	667.15 ± 4.3
10010 kPa, x2 = 0.2111	678.85 ± 4.3	669.02 ± 4.3
10010 kPa, x2 = 0.3158	684.4 ± 4.4	–
10010 kPa, x2 = 0.4411	692.81 ± 4.4	–
10010 kPa, x2 = 0.8823	745.05 ± 4.8	–
10020 kPa, x2 = 0.1631	676.71 ± 4.3	–
10020 kPa, x2 = 0.7301	721.36 ± 4.6	–
11000 kPa, x2 = 0.4411	693.87 ± 4.5	–
11010 kPa, x2 = 0.2111	679.93 ± 4.4	–
11010 kPa, x2 = 0.3158	685.49 ± 4.4	–
11020 kPa, x2 = 0.1631	677.8 ± 4.3	–
11020 kPa, x2 = 0.7301	722.39 ± 4.6	–
11020 kPa, x2 = 0.8823	746.05 ± 4.8	–
12000 kPa, x2 = 0.3158	686.55 ± 4.4	–
12010 kPa, x2 = 0.2111	681 ± 4.4	–
12010 kPa, x2 = 0.7301	723.42 ± 4.6	–
12010 kPa, x2 = 0.8823	747.05 ± 4.8	–
12020 kPa, x2 = 0.1631	678.83 ± 4.3	–
12020 kPa, x2 = 0.4411	694.93 ± 4.5	–
13000 kPa, x2 = 0.2111	682.04 ± 4.4	–
13010 kPa, x2 = 0.3158	687.6 ± 4.4	–
13010 kPa, x2 = 0.4411	695.99 ± 4.5	–
13010 kPa, x2 = 0.8823	748.05 ± 4.8	–
13020 kPa, x2 = 0.1631	679.88 ± 4.4	–
13020 kPa, x2 = 0.7301	724.48 ± 4.6	–
14000 kPa, x2 = 0.2111	683.07 ± 4.4	–
14000 kPa, x2 = 0.7301	725.49 ± 4.7	–
14000 kPa, x2 = 0.8823	749.02 ± 4.8	–
14010 kPa, x2 = 0.1631	680.88 ± 4.4	–
14010 kPa, x2 = 0.4411	697.01 ± 4.5	–
14020 kPa, x2 = 0.3158	688.64 ± 4.4	–
15000 kPa, x2 = 0.2111	684.09 ± 4.4	–
15000 kPa, x2 = 0.8823	749.96 ± 4.8	–
15010 kPa, x2 = 0.1631	681.89 ± 4.4	–
15010 kPa, x2 = 0.3158	689.64 ± 4.4	–
15010 kPa, x2 = 0.7301	726.47 ± 4.7	–
15020 kPa, x2 = 0.4411	698 ± 4.5	–
16000 kPa, x2 = 0.2111	685.06 ± 4.4	–
16000 kPa, x2 = 0.3158	690.66 ± 4.4	–
16000 kPa, x2 = 0.4411	699.01 ± 4.5	–
16010 kPa, x2 = 0.1631	682.9 ± 4.4	–
16010 kPa, x2 = 0.7301	727.46 ± 4.7	–
16010 kPa, x2 = 0.8823	750.92 ± 4.8	–
17000 kPa, x2 = 0.8823	751.86 ± 4.8	–
17010 kPa, x2 = 0.1631	683.85 ± 4.4	–
17010 kPa, x2 = 0.2111	686.08 ± 4.4	–
17010 kPa, x2 = 0.3158	691.65 ± 4.4	–
17010 kPa, x2 = 0.4411	699.99 ± 4.5	–
17010 kPa, x2 = 0.7301	728.43 ± 4.7	–
18000 kPa, x2 = 0.1631	684.83 ± 4.4	–
18000 kPa, x2 = 0.7301	729.35 ± 4.7	–
18010 kPa, x2 = 0.3158	692.6 ± 4.5	–
18010 kPa, x2 = 0.4411	700.97 ± 4.5	–
18020 kPa, x2 = 0.2111	687.03 ± 4.4	–
18020 kPa, x2 = 0.8823	752.76 ± 4.8	–
19000 kPa, x2 = 0.1631	685.78 ± 4.4	–
19010 kPa, x2 = 0.3158	693.56 ± 4.5	–
19010 kPa, x2 = 0.8823	753.68 ± 4.8	–
19020 kPa, x2 = 0.2111	687.96 ± 4.4	–
19020 kPa, x2 = 0.4411	701.92 ± 4.5	–
19020 kPa, x2 = 0.7301	730.28 ± 4.7	–
20000 kPa, x2 = 0.7301	731.24 ± 4.7	–
20010 kPa, x2 = 0.1631	686.67 ± 4.4	–
20010 kPa, x2 = 0.2111	688.89 ± 4.4	–
20010 kPa, x2 = 0.3158	694.48 ± 4.5	–
20010 kPa, x2 = 0.4411	702.85 ± 4.5	–
20020 kPa, x2 = 0.8823	754.54 ± 4.8	–
